15 molecules from ChEMBL document CHEMBL4304773, “Nitroimidazole-containing compounds and their antibacterial and antitubercular activities” (2019) can be followed below.

Values after ≈ are worked out from the molar mass of the structure shown.

The subject of test [1] is Staphylococcus epidermidis. The test can be described thus: Antibacterial activity against methicillin-sensitive Staphylococcus epidermidis by two fold dilution method. In kind it is functional.
Test [2] deals with Staphylococcus aureus. The experiment in a line: Antibacterial activity against methicillin-sensitive Staphylococcus aureus by two fold dilution method. In kind it is functional.
Test [3] deals with Staphylococcus aureus. The test can be described thus: Antibacterial activity against Staphylococcus aureus ATCC 25923 after 24 hrs. In kind it is functional. As to conditions: ATCC 25923, 24 h.
The subject of test [4] is Pseudomonas aeruginosa. The experiment in a line: Antibacterial activity against Pseudomonas aeruginosa ATCC 27853 after 24 hrs. The test is classed as functional. To be noted: ATCC 27853, 24 h.
The test system of test [5] is Escherichia coli. The test can be described thus: Potency index, ratio of norfloxacin MIC to test compound MIC for drug-resistant Escherichia coli. In kind it is functional.
In test [6] the test system is Klebsiella pneumoniae. The experiment in a line: Antibacterial activity against Klebsiella pneumoniae after 24 hrs. In kind it is functional.
In test [7] the test system is Enterococcus faecalis. The test can be described thus: Antibacterial activity against Enterococcus faecalis after 24 hrs. In kind it is functional.
Test [8] deals with Staphylococcus aureus. The experiment in a line: Antibacterial activity against methicillin-resistant Staphylococcus aureus after 24 hrs. In kind it is functional.
The test system of test [9] is Pseudomonas aeruginosa. The test can be described thus: Antibacterial activity against Pseudomonas aeruginosa after 24 hrs. The test is classed as functional.
Test [10] concerns Escherichia coli. The test can be described thus: Antibacterial activity against Escherichia coli ATCC 25922 after 24 hrs. As to conditions: ATCC 25922, 24 h. In kind it is functional.
The test system of test [11] is Escherichia coli. The test can be described thus: Antibacterial activity against drug-resistant Escherichia coli after 24 hrs. The test is classed as functional.
Test [12] has as its system Staphylococcus aureus. The experiment in a line: Antibacterial activity against Staphylococcus aureus ATCC 29213 after 24 hrs. In kind it is functional. To be noted: ATCC 29213, 24 h.
The test system of test [13] is Staphylococcus epidermidis. The test can be described thus: Potency index, ratio of chloramphenicol MIC to test compound MIC for Staphylococcus epidermidis. In kind it is functional.
Test [14] has as its system Enterococcus faecalis. The test can be described thus: Antibacterial activity against Enterococcus faecalis. In kind it is functional.
In test [15] the test system is Enterococcus faecalis. The test can be described thus: Potency index, ratio of chloramphenicol MIC to test compound MIC for Enterococcus faecalis. In kind it is functional.
Test [16] relates to Staphylococcus epidermidis. The experiment in a line: Antibacterial activity against Staphylococcus epidermidis. The test is classed as functional.
Test [17] relates to Staphylococcus aureus. The test can be described thus: Antibacterial activity against Staphylococcus aureus. In kind it is functional.
Test [18] relates to Pseudomonas aeruginosa. The test can be described thus: Antibacterial activity against Pseudomonas aeruginosa. In kind it is functional.
In test [19] the test system is Bacillus subtilis. The test can be described thus: Antibacterial activity against Bacillus subtilis. In kind it is functional.
Test [20] deals with Escherichia coli. The test can be described thus: Antibacterial activity against Escherichia coli. The test is classed as functional.
The subject of test [21] is Salmonella typhimurium. The test can be described thus: Antibacterial activity against Salmonella typhimurium. The test is classed as functional, Salmonella enterica subsp. enterica serovar Typhimurium. As to conditions: Salmonella enterica.
In test [22] the test system is Proteus. The experiment in a line: Antibacterial activity against Proteus. In kind it is functional.
In test [23] the test system is Klebsiella pneumoniae. The experiment in a line: Antibacterial activity against Klebsiella pneumoniae ATCC 10031 after 18 hrs by two fold serial dilution. The test is classed as functional. To be noted: ATCC 10031, 18 h.
For test [24], the system named is Bacillus subtilis. The test can be described thus: Antibacterial activity against Bacillus subtilis PTCC 1023 after 18 hrs by two fold serial dilution. To be noted: PTCC 1023, 18 h. In kind it is functional.
In test [25] the test system is Escherichia coli. The test can be described thus: Antibacterial activity against Escherichia coli ATCC 8739 after 18 hrs by two fold serial dilution. The test is classed as functional. To be noted: ATCC 8739, 18 h.
Test [26] concerns Staphylococcus aureus. The experiment in a line: Antibacterial activity against Staphylococcus aureus ATCC 6538 after 18 hrs by two fold serial dilution. In kind it is functional. To be noted: ATCC 6538, 18 h.
Test [27] has as its system Staphylococcus epidermidis. The experiment in a line: Antibacterial activity against Staphylococcus epidermidis ATCC 12228 after 18 hrs by two fold serial dilution. The test is classed as functional. As to conditions: ATCC 12228, 18 h.
Test [28] relates to Clostridioides difficile. The test can be described thus: Antibacterial activity against Clostridium difficile 630 assessed as zone of inhibition at 2.5 ug/disc after 24 hrs. The test is classed as functional. As to conditions: Clostridioides difficile, 630, 24 h; read-out: IZ.
Test [29] relates to Clostridioides difficile. The test can be described thus: Antibacterial activity against Clostridium difficile R20291 assessed as zone of inhibition at 2.5 ug/disc after 24 hrs. In kind it is functional. To be noted: read-out: IZ.
In test [30] the test system is Clostridioides difficile. The test can be described thus: Antibacterial activity against Clostridium difficile ATCC 43603 assessed as zone of inhibition at 2.5 ug/disc after 24 hrs. The test is classed as functional. To be noted: ATCC 43603, 24 h, read-out: IZ.
For test [31], the system named is Helicobacter pylori. The test can be described thus: Antibacterial activity against drug-sensitive Helicobacter pylori assessed as zone of inhibition at 8 ug/disc. In kind it is functional. To be noted: read-out: IZ.
The test system of test [32] is Helicobacter pylori. The test can be described thus: Antibacterial activity against Helicobacter pylori clinical isolate assessed as zone of inhibition at 8 ug/disc. The test is classed as functional. To be noted: read-out: IZ.
In test [33] the test system is Helicobacter pylori. The experiment in a line: Antibacterial activity against metronidazole-resistant Helicobacter pylori clinical isolates. The test is classed as functional.
Test [34] deals with Helicobacter pylori. The test can be described thus: Antibacterial activity against Helicobacter pylori NCTC 11637. In kind it is functional.
The subject of test [35] is Helicobacter pylori. The test can be described thus: Antibacterial activity against metronidazole-resistant Helicobacter pylori. The test is classed as functional.
For test [36], the system named is Helicobacter pylori. The test can be described thus: Potency index, ratio of metronidazole MIC90 to test compound MIC90 for metronidazole-resistant Helicobacter pylori. The test is classed as functional.
In test [37] the test system is Helicobacter pylori. The experiment in a line: Antibacterial activity against Helicobacter pylori. In kind it is functional.
In test [38] the test system is Klebsiella aerogenes. The experiment in a line: Antibacterial activity against Enterobacter aerogenes PTCC 1221 after 18 hrs by two fold serial dilution. In kind it is functional. To be noted: PTCC 1221, 18 h.
Test [39] has as its system Helicobacter pylori. The experiment in a line: Antibacterial activity against drug-resistant Helicobacter pylori assessed as zone of inhibition at 8 ug/disc. The test is classed as functional. To be noted: read-out: IZ.
Test [40] deals with Escherichia coli. The experiment in a line: Antibacterial activity against Escherichia coli infected in mouse. The test is classed as functional.

In the case of `COc1c(N2C[C@@H]3CCCN(C[C@@H](O)Cn4c([N+](=O)[O-])cnc4C)[C@@H]3C2)c(F)cc2c(=O)c(C(=O)O)cn(C3CC3)c12`, the MIC in test [1] and in [2] was 0.03 to 2 µg/mL (≈ 0.0513 to 3.42 µM) each time.

On to `COc1cc(/C=C(\C#N)n2cc([N+](=O)[O-])nc2C)c2c(c1OCc1ccccc1F)CN1CCc3cc4c(cc3C1C2)OCO4` (stereo unspecified), for which the MIC in [3], in test [4], in test [6], in [7], in test [8] and in test [9] was 3 to 1020 µM (≈ 1.83 to 622 µg/mL) throughout. Further, the MIC – broadly, the smallest concentration in the dilution series that meets the test's criterion for growth inhibition – in test [10] is 3 to 1020 µM (≈ 1.83 to 622 µg/mL); in test [11], 3 µM (≈ 1.83 µg/mL); in test [12], 3 to 1020 µM (≈ 1.83 to 622 µg/mL). Besides, the Ratio in test [5] amounted to 33.

`Cc1ncc([N+](=O)[O-])n1CCN1C(=O)S/C(=C\c2ccccc2)C1=O`: the results for the Ratio in test [13] and in [15] were 2 and 8, respectively. The MIC in test [14] and in test [16] was 62.5 µg/mL (≈ 174 µM) each time.

For `Cc1ncc([N+](=O)[O-])n1CCCNS(=O)(=O)c1ccc(NCc2ccc(Cl)cc2Cl)cc1`, the MIC in test [17], in test [18], in [19], in test [20], in test [21] and in test [22] was 64 to 128 µg/mL (≈ 128 to 257 µM) in each case.

Turning to `Cn1cnc([N+](=O)[O-])c1S(=O)(=O)c1nnc(-c2ncc([N+](=O)[O-])n2C)s1`, the MIC in test [23], in test [24], in [25], in test [26] and in test [27] was 2 to 64 µg/mL (≈ 5 to 160 µM) in each case.

`C/C=C/c1nc(CS(=O)(=O)c2ccccc2)c([N+](=O)[O-])n1C`: the zone of inhibition at 2.5 µg/disc in [28], in test [29] and in [30] was 13.5 to 24.5 mm throughout.

`Cn1c([N+](=O)[O-])cnc1-c1nnc(S)s1`: the zone of inhibition at 8 µg/disc in [31] and in test [32] was 20.9 to 50 mm each time.

With `Cn1c([N+](=O)[O-])cnc1-c1nnc(Cl)s1`, the zone of inhibition at 8 µg/disc in test [31] and in test [32] was 20.9 to 50 mm throughout.

On to `Cc1ncc([N+](=O)[O-])n1CCNCc1no[n+]([O-])c1C#N`, for which the MIC90 – broadly, an inhibitory concentration at the 90% level, which refers to growth in some studies and to a panel of isolates in others – in test [33] is 0.5 to 32 µg/mL (≈ 1.71 to 109 µM); in test [34], 0.5 to 32 µg/mL (≈ 1.71 to 109 µM); in [35], 1 µg/mL (≈ 3.41 µM); in test [37] it was 0.5 µg/mL (≈ 1.71 µM). The MIC in test [35] is 0.25 to 1 µg/mL (≈ 0.853 to 3.41 µM); in test [37] it was 5 µg/mL (≈ 17.1 µM). Moreover, the Ratio in test [36] is reported as above 32.

As for `CC(=O)N(Cc1ccc(Cl)cc1Cl)c1ccc(S(=O)(=O)NCCCn2c([N+](=O)[O-])cnc2C)cc1`, the minimal inhibitory concentration (MIC) in [17], in test [18], in [19], in [20], in test [21] and in [22] was 16 to 64 µg/mL (≈ 29.6 to 118 µM) throughout.

For `COc1ccc(-c2nnc(Sc3c([N+](=O)[O-])ncn3C)s2)cc1`, the MIC in test [23] is above 64 µg/mL; in test [38] it was above 64 µg/mL; in [24], above 64 µg/mL; in test [25] it was above 64 µg/mL; in test [26], 4 to 32 µg/mL (≈ 11.4 to 91.6 µM).

With `Cc1ncc([N+](=O)[O-])n1CCO` [METRONIDAZOLE], the MIC90 in test [35] is above 32 µg/mL. Moreover, the results for the zone of inhibition at 8 µg/disc in test [31], in [32] and in test [39] were 18 mm, 16.3 mm and 11 mm, respectively. Besides, the zone of inhibition at 2.5 µg/disc in test [28], in test [29] and in test [30] was 9 to 22 mm in each case.

Regarding `Cn1cnc([N+](=O)[O-])c1S(=O)(=O)c1nnc(-c2ccc([N+](=O)[O-])o2)s1`, the MIC in test [23], in [24], in test [25], in [26] and in [27] was 2 to 64 µg/mL (≈ 5.18 to 166 µM) each time.

For `COc1c(N2CCNC(C)C2)c(F)cc2c(=O)c(C(=O)O)cn(C3CC3)c12` (stereo unspecified) [GATIFLOXACIN], the MIC in test [1] and in [2] was 0.06 to 16 µg/mL (≈ 0.16 to 42.6 µM) throughout.

As to `CCn1cc(C(=O)O)c(=O)c2cc(F)c(N3CCNCC3)cc21` [NORFLOXACIN], the MIC in [23] fell in the range of 0.13 to 1 µg/mL (≈ 0.407 to 3.13 µM); in test [3] it was 13 to 1600 µM (≈ 4.15 to 512 µg/mL); in test [4], 13 to 1600 µM (≈ 4.15 to 512 µg/mL); in [6], 13 to 1600 µM (≈ 4.15 to 512 µg/mL); in test [24], 0.13 to 1 µg/mL (≈ 0.407 to 3.13 µM); in test [25], 0.13 to 1 µg/mL (≈ 0.407 to 3.13 µM). Also, the MIC is 13 to 1600 µM (≈ 4.15 to 512 µg/mL) in test [7]; 13 to 1600 µM (≈ 4.15 to 512 µg/mL) in test [8]; 13 to 1600 µM (≈ 4.15 to 512 µg/mL) in test [9]; 13 to 1600 µM (≈ 4.15 to 512 µg/mL) in test [10]; 0.13 to 1 µg/mL (≈ 0.407 to 3.13 µM) in [26]; 0.13 to 1 µg/mL (≈ 0.407 to 3.13 µM) in [27]. The values for the MIC in [11] and in [12] were 100 µM (≈ 31.9 µg/mL) and 13 to 1600 µM (≈ 4.15 to 512 µg/mL), respectively. In test [40], the 50% effect level (ED50) was put at a dose of 5.6 mg/kg.
